Test results: US20050107432A1, “Sigma receptor binder containing indanone derivative” (priority 2002, published 2005)
Counter-ions that a name gives are not always drawn.

Biological target: Sigma receptor
Test: Sigma receptor binding assay (3H-DTG, guinea pig brain crude membrane fraction)
Conditions: for IC50: inhibition of 3H-DTG binding to guinea pig brain crude membrane fraction, 25° C., 1 hour; for sigma receptor binding action: result in words, no value given
Experimental: Sigma Receptor Binding Assay
(1) Preparation of Receptor
Ten male guinea pigs (Crj, Hartley, from Charles River Japan, Inc.) (body weight: 234 g to 260 g) were decapitated, exsanguinated and died. The brain was immediately removed, homogenized with ten volumes of 50 mM Tris-HCl (pH 7.4) using a Teflon homogenizer and was centrifuged at a rate of 50000× g at 4° C. for 20 minutes. The washing procedure was repeated once more under the same conditions, and the resulting crude membrane fraction was subjected to the assay.
The filter paper was transferred to a vial for radioactivity measurement, mixed with 5 mL of a liquid scintillation cocktail (Atomlight, from PACKARD), and the radioactivity on the filter was determined by a liquid scintillation counter (Model 1500, from PACKARD) for 2 minutes. The specific binding and the non-specific binding in the absence of the test compound were determined in the same way as above except for using 50% DMSO solution instead of the test compound and using a 100 μM Haloperidol solution instead of the test compound, respectively.
(3) Determination of Inhibition
The inhibitions of the test compound at individual concentrations were determined from the ratio of the specific binding in the presence of the test compound to the specific binding in the absence thereof. The dose-response curve was regressed according to a logit-log model in which the ratio of the specific binding in the presence of the test compound to the specific binding in the absence thereof was subjected to logit transformation and plotted against the common logarithm value of each concentration.

Row | Structure (SMILES) | IC50 | sigma receptor binding action
1 | CCOc1cc2c(cc1OCC)C(=O)C(CC1CCN(Cc3ccc(Cl)cc3)CC1)C2 (stereo not shown) [Example 13, 1-(4-chlorobenzyl)-4-[(5,6-diethoxy-1-indanon)-2-yl]methylpiperidine hydrochloride] | 1.6 nM | –
2 | O=C1c2ccc(C3CCCCC3)cc2CC1CC1CCN(Cc2ccccc2)CC1 (stereo not shown) [Example 22, hydrochloride] | 1.3 nM | –
3 | COc1cc2c(cc1OC)C(=O)C(=CC1CCN(Cc3ccccc3)CC1)C2.Cl [Example 25, 1-Benzyl-4-[(5,6-dimethoxy-1-indanon)-2-ylidene]methylpiperidine hydrochloride] | – | found to have a sigma receptor binding action
4 | CCOc1cc2c(cc1OCC)C(=O)C(=CC1CCN(Cc3ccccc3)CC1)C2.Cl [Example 26, 1-Benzyl-4-[(5,6-diethoxy-1-indanon)-2-ylidene]methylpiperidine hydrochloride] | – | found to have a sigma receptor binding action
5 | Cl.O=C1c2ccccc2CC1CC1CCN(Cc2ccccc2)CC1 (stereo not shown) [Example 27, 1-Benzyl-4-[(1-indanon)-2-yl]methylpiperidine hydrochloride] | 1.7 nM | found to have a sigma receptor binding action
6 | COc1ccc2c(c1)CC(CC1CCN(Cc3ccccc3)CC1)C2=O.Cl (stereo not shown) [Example 28, 1-Benzyl-4-[(5-methoxy-1-indanon)-2-yl]methylpiperidine hydrochloride] | 2.3 nM | found to have a sigma receptor binding action
7 | CCOc1cc2c(cc1OC)C(=O)C(CC1CCN(Cc3ccccc3)CC1)C2.Cl (stereo not shown) [Example 29, 1-Benzyl-4-[(5-ethoxy-6-methoxy-1-indanon)-2-yl]methylpiperidine hydrochloride] | – | found to have a sigma receptor binding action
8 | CCOc1cc2c(cc1OCC)C(=O)C(CC1CCN(Cc3ccccc3)CC1)C2.Cl (stereo not shown) [Example 30, 1-Benzyl-4-[(5,6-diethoxy-1-indanon)-2-yl]methylpiperidine hydrochloride] | 3.7 nM | found to have a sigma receptor binding action
9 | CCCOc1cc2c(cc1OCCC)C(=O)C(CC1CCN(Cc3ccccc3)CC1)C2.Cl (stereo not shown) [Example 31, 1-Benzyl-4-[[5,6-di(1-propyloxy)-1-indanon)-2-yl]methylpiperidine hydrochloride] | – | found to have a sigma receptor binding action
10 | COc1cc2c(cc1OC)C(=O)C(CCC1CCN(Cc3ccccc3)CC1)C2.Cl (stereo not shown) [Example 32, 1-Benzyl-4-[2-[(5,6-dimethoxy-1-indanon)-2-yl]ethyl]piperidine hydrochloride] | – | found to have a sigma receptor binding action
11 | COc1cc2c(cc1OC)C(=O)C(CCCC1CCN(Cc3ccccc3)CC1)C2.Cl (stereo not shown) [Example 33, 1-Benzyl-4-[3-[(5,6-dimethoxy-1-indanon)-2-yl]propyl]piperidine hydrochloride] | 7.6 nM | found to have a sigma receptor binding action
12 | COc1cc2c(cc1OC)C(=O)C(CC1CCN(Cc3cccc(F)c3)CC1)C2.Cl (stereo not shown) [Example 34, 1-(3-Fluorobenzyl)-4-[(5,6-dimethoxy-1-indanon)-2-yl]methylpiperidine hydrochloride] | – | found to have a sigma receptor binding action
13 | COc1cc2c(cc1OC)C(=O)C(CC1CCN(Cc3cccc(C)c3)CC1)C2.Cl (stereo not shown) [Example 35, 1-(3-Methylbenzyl)-4-[(5,6-dimethoxy-1-indanon)-2-yl]methylpiperidine hydrochloride] | – | found to have a sigma receptor binding action
14 | COc1cc2c(cc1OC)C(=O)C(CC1CCN(CC3CCCCC3)CC1)C2.Cl (stereo not shown) [Example 36, 1-Cyclohexylmethyl-4-[(5,6-dimethoxy-1-indanon)-2-yl]methylpiperidine hydrochloride] | – | found to have a sigma receptor binding action
15 | CCOc1cc2c(cc1OCC)C(=O)C(F)(CC1CCN(Cc3cccc(F)c3)CC1)C2 (stereo not shown) [Example 41, 1-(3-fluorobenzyl)-4-[(5,6-diethoxy-2-fluoro-1-indanon)-2-yl]methylpiperidine hydrochloride] | 3 nM | –
16 | CCOc1cc2c(cc1OCC)C(=O)C(F)(CC1CCN(Cc3ccccc3Cl)CC1)C2 (stereo not shown) [Example 43, 1-(2-chlorobenzyl)-4-[(5,6-diethoxy-2-fluoro-1-indanon)-2-yl]methylpiperidine hydrochloride] | 1.5 nM | –

Row | Structure (SMILES) | IC50 | sigma receptor binding action
17 | CCOc1cc2c(cc1OCC)C(=O)C(F)(CC1CCN(Cc3ccc(C)cc3)CC1)C2 (stereo not shown) [Example 48, 1-(4-methylbenzyl)-4-[(5,6-diethoxy-2-fluoro-1-indanon)-2-yl]methylpiperidine hydrochloride] | 2.8 nM | –
18 | CCOc1cc2c(cc1OCC)C(=O)C(F)(CC1CCN(CC3CCCCCC3)CC1)C2 (stereo not shown) [Example 51, 1-cycloheptylmethyl-4-[(5,6-diethoxy-2-fluoro-1-indanon)-2-yl]methylpiperidine hydrochloride] | 1.1 nM | –
19 | CCOc1cc2c(cc1OCC)C(=O)C(F)(CC1CCN(CC3CCCCCCC3)CC1)C2 (stereo not shown) [Example 52, 1-cyclooctylmethyl-4-[(5,6-diethoxy-2-fluoro-1-indanon)-2-yl]methylpiperidine hydrochloride] | 1.1 nM | –
20 | Cl.O=C1c2ccccc2CC1(F)CC1CCN(Cc2ccccc2)CC1 (stereo not shown) [Example 54, 1-Benzyl-4-[(2-fluoro-1-indanon)-2-yl]methylpiperidine hydrochloride] | – | found to have a sigma receptor binding action
21 | COc1ccc2c(c1)CC(F)(CC1CCN(Cc3ccccc3)CC1)C2=O.Cl (stereo not shown) [Example 55, 1-Benzyl-4-[(5-methoxy-2-fluoro-1-indanon)-2-yl]methylpiperidine hydrochloride] | – | found to have a sigma receptor binding action
22 | COc1cc2c(cc1OC)C(=O)C(F)(CC1CCN(Cc3ccccc3)CC1)C2.Cl (stereo not shown) [Example 56, 1-Benzyl-4-[(5,6-dimethoxy-2-fluoro-1-indanon)-2-yl]methylpiperidine hydrochloride] | – | found to have a sigma receptor binding action
23 | CCOc1cc2c(cc1OCC)C(=O)C(F)(CC1CCN(Cc3ccccc3)CC1)C2.Cl (stereo not shown) [Example 57, 1-Benzyl-4-[(5,6-diethoxy-2-fluoro-1-indanon)-2-yl]methylpiperidine hydrochloride] | – | found to have a sigma receptor binding action
24 | CCCOc1cc2c(cc1OCCC)C(=O)C(F)(CC1CCN(Cc3ccccc3)CC1)C2.Cl (stereo not shown) [Example 58, 1-Benzyl-4-[[5,6-di(1-propyloxy)-2-fluoro-1-indanon]-2-yl]methylpiperidine hydrochloride] | 1.3 nM | found to have a sigma receptor binding action
25 | COc1cc2c(cc1OC)C(=O)C(F)(C1CCN(Cc3ccccc3)CC1)C2.Cl (stereo not shown) [Example 59, 1-Benzyl-4-[(5,6-dimethoxy-2-fluoro-1-indanon)-2-yl]piperidine] | – | found to have a sigma receptor binding action
26 | COc1cc2c(cc1OC)C(=O)C(F)(CCC1CCN(Cc3ccccc3)CC1)C2 (stereo not shown) [Example 60, 1-Benzyl-4-[2-[(5,6-dimethoxy-2-fluoro-1-indanon)-2-yl]ethyl]piperidine] | – | found to have a sigma receptor binding action
27 | COc1cc2c(cc1OC)C(=O)C(F)(CCCC1CCN(Cc3ccccc3)CC1)C2.Cl (stereo not shown) [Example 61, 1-Benzyl-4-[3-[(5,6-dimethoxy-2-fluoro-1-indanon)-2-yl]propyl]piperidinepiperidine hydrochloride] | – | found to have a sigma receptor binding action
28 | COc1cc2c(cc1OC)C(=O)C(F)(CC1CCN(Cc3ccccc3F)CC1)C2.Cl (stereo not shown) [Example 62, 1-(2-Fluorobenzyl)-4-[(5,6-dimethoxy-2-fluoro-1-indanon)-2-yl]methylpiperidine hydrochloride] | – | found to have a sigma receptor binding action
29 | COc1cc2c(cc1OC)C(=O)C(F)(CC1CCN(Cc3cccc(F)c3)CC1)C2.Cl (stereo not shown) [Example 63, 1-(3-Fluorobenzyl)-4-[(5,6-dimethoxy-2-fluoro-1-indanon)-2-yl]methylpiperidine hydrochloride] | – | found to have a sigma receptor binding action
30 | COc1cc2c(cc1OC)C(=O)C(F)(CC1CCN(Cc3ccc(F)cc3)CC1)C2.Cl (stereo not shown) [Example 64, 1-(4-Fluorobenzyl)-4-[(5,6-dimethoxy-2-fluoro-1-indanon)-2-yl]methylpiperidine hydrochloride] | – | found to have a sigma receptor binding action
31 | COc1cc2c(cc1OC)C(=O)C(F)(CC1CCN(Cc3cccc(C)c3)CC1)C2.Cl (stereo not shown) [Example 65, 1-(3-Methylbenzyl)-4-[(5,6-dimethoxy-2-fluoro-1-indanon)-2-yl]methylpiperidine hydrochloride] | – | found to have a sigma receptor binding action
32 | COc1cc2c(cc1OC)C(=O)C(F)(CC1CCN(CC3CCCCC3)CC1)C2.Cl (stereo not shown) [Example 66, 1-Cyclohexylmethyl-4-[(5,6-dimethoxy-2-fluoro-1-indanon)-2-yl]methylpiperidine hydrochloride] | – | found to have a sigma receptor binding action
